Reference: patent US20050214738A1, “Conditional allele system” (priority 2003, published 2005)

What was measured:
[1] = system: mutant FRBs; assay: SeAP transcriptional switch assay, panel of FRB mutants at 2095, 2098, 2101; assay type: cell-based, human; conditions: Phe at 2101
Method: All FRB mutants were prepared by the Quikchange mutagenesis method (Stratagene) using protocols provided by the manufacturer. Briefly, PCR reactions containing the parent plasmid pBJ5-FRB-VP16-HA or pBJ5-FRB*-VP16-HA and overlapping oligonucleotides containing the relevant base changes were performed with Pfu polymerase (Stratagene, San Diego, Calif.). PCR reactions were digested with the methylation sensitive restriction endonuclease Dpn1 to eliminate the parent plasmid and the reaction was transformed in XL10-Gold Ultracompetent E. coli (Stratagene).
Electroporation details are available upon request. Cells were immediately aliquoted to 2 or 3×96 well plates with flat bottoms. […] Data was analysed with Softmax Pro (Molecular Devices), Microsoft Excel and Prism 3 (GraphPad Software).

[2] = target: T1, FKBP-GSK3β-GFP (Homo sapiens, UniProt P62942); assay: Sub-cellular localization of FKBP-GSK3β-GFP with FRB(TLW)-NES and FRB(KTF)-NLS in COS1 cells; assay type: cell-based; conditions: 10 nM, 1 hour
T1 construct: expressed in transfected cells; host or cells: COS1 cells
Method: COS1 cells were electroporated with 1 μg pS-FKBP-GSK3β-GFP, 1 μg of the ‘exporter’ pBJ5-FRB(TLW)-Exp-HA containing a nuclear export sequence derived from the rev protein of Human Immunodeficiency Virus and 3 μg of the ‘importer’ pBJ5-FRB(KTF)-Imp with a nuclear localization sequence from SV40 Large T antigen. Cells were plated on autoclaved coverslips and incubated 36 hours followed by 1 hour of rapalog treatment (10 nM). Cells were fixed 10 minutes in 4% paraformaldeyde/PBS at 4° C. and mounted for microscopy with DAPI to visualize the nucleus. Microscopy was perfomed with a Leica confocal microscope and Leica software.

T1 sequence (P62942 whole entry): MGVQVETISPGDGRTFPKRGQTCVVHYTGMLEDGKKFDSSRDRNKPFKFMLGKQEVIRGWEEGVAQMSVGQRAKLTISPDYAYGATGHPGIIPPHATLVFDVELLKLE

## C16-(S)Butylsulfonylrapamycin [C16-BSrap, reference compound]
[1]
  binding to mutant FRBs with Phe substituted at amino acid 2101: little or no binding
[2]
  sub-cellular localization of GSK3β: localized to the cytoplasm
